Reference: patent publication US20240327353A1
Where two headings read alike, the source gives them in different places. One block for each compound: values may come before it.

Tests used:
[1] = target: T1, C322K^6.34 5-HT2AR (Homo sapiens, UniProt P28223, C322K); experiment: IP1 accumulation assay, inverse agonism at constitutively activated receptor; format: cell-based
T1 construct: expressed in transfected cells; host or cells: clonal cells
Protocol: (§1) Transfections were performed for 48 hours.

[2] = target: D2L (Homo sapiens, UniProt P14416); experiment: Radioligand binding, cell membranes; conditions: for pKi D2L: [^3H]spiperone, mean of n independent experiments
Protocol: as §1

[3] = target: T2, 5-HT1A (Homo sapiens, UniProt P08908); experiment: Radioligand binding, cell membranes; conditions: for pKi 5-HT1A: [^3H]5-CT, mean of n independent experiments
T2 construct: host or cells: HEK293T, transient
T2 sequence (P08908 1-422): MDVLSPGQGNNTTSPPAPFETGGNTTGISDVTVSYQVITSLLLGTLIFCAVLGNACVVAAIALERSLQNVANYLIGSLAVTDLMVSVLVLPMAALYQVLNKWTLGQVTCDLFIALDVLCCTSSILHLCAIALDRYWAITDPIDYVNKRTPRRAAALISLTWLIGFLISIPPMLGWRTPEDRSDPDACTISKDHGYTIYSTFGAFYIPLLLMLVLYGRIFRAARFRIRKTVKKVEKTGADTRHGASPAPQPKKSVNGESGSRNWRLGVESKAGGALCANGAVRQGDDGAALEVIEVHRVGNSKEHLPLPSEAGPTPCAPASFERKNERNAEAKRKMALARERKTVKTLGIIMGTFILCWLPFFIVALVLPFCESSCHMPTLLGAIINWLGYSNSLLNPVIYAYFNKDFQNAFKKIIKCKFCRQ
Protocol: as §1

[4] = target: 5-HT7 (Homo sapiens, UniProt P34969); experiment: Radioligand binding, cell membranes; conditions: for pKi 5-HT7: [^3H]5-CT, mean of n independent experiments
Protocol: as §1

[5] = target: D3 (Homo sapiens, UniProt P35462); experiment: Radioligand binding, cell membranes
Protocol: as §1

[6] = target: T3, α1A-adrenergic receptor (Homo sapiens, UniProt P35348); experiment: biochemical
T3 sequence (P35348 1-466): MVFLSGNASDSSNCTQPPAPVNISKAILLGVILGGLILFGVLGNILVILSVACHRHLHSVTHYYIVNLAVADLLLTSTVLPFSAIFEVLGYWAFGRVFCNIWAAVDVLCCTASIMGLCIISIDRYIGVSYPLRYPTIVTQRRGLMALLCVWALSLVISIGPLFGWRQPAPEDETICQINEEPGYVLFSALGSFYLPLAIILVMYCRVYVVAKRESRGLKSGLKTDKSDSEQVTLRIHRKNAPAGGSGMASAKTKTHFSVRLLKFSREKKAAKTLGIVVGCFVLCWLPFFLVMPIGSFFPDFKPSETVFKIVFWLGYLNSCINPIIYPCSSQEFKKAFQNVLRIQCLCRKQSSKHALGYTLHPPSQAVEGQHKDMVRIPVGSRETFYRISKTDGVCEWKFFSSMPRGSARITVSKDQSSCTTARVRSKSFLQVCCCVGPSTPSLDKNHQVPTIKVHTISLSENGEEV

[7] = target: T4, α1B-adrenergic receptor (Homo sapiens, UniProt P35368); experiment: biochemical
T4 sequence (P35368 1-520): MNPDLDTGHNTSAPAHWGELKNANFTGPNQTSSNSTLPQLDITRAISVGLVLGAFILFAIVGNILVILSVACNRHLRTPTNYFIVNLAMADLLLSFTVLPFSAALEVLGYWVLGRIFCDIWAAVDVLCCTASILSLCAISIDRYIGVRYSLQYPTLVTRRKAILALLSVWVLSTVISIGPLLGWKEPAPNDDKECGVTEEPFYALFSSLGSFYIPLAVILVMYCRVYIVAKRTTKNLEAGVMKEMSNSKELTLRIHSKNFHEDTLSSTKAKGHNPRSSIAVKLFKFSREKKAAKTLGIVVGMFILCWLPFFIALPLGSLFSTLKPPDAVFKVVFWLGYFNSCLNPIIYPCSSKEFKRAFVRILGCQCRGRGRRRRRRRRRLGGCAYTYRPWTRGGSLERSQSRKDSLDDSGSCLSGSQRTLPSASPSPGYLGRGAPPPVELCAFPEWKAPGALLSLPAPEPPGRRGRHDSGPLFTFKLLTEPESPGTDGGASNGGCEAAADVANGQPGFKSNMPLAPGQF

[8] = target: human wild-type 5-HT2C (Homo sapiens, UniProt P28335); experiment: IP-One HTRF IP1 accumulation assay
[9] = test system: male C57BL/6J mice; experiment: Locomotor activity, compound alone (open field); format: in vivo; conditions: 3 mg*kg^−1 s.c. (FIG. 3C)
[10] = target: T5, 5-HT2BR (Homo sapiens, UniProt P41595)
[11] = test system: male C57BL/6J mice; experiment: (±)-DOI-elicited head twitch response; conditions: for head twitch response elicited by (±)-DOI: 1 mg*kg^−1 (±)-DOI s.c., pretreatment s.c., every dose tested (PIMA, (2S,4R)-2k 0.3 or 3 mg kg^−1, (2R,4R)-3h 3.0 or 5.6 mg kg^−1)
[12] = target: human wild-type 5-HT2B (Homo sapiens, UniProt P41595); experiment: IP-One HTRF IP1 accumulation assay
[13] = target: T5, 5-HT2BR; experiment: Radioligand binding (competitive displacement and saturation), cell membranes; conditions: pKi at the 5-HT2BR, single experiment excluded from the reported data, excluded: excessive or incomplete radioligand displacement
[14] = target: T4, α1B-adrenergic receptor
[15] = target: T3, α1A-adrenergic receptor
[16] = target: T6, W158I^4.56 H1R (Homo sapiens, UniProt P35367, W158I)
[17] = target: human wild-type H1R (Homo sapiens, UniProt P35367); experiment: IP-One HTRF IP1 accumulation assay; conditions: competitive antagonism of histamine-stimulated IP1 accumulation (10 μM histamine)
[18] = test system: male C57BL/6J mice; experiment: Locomotor activity after (±)-DOI (open field); conditions: pretreatment 0.3 mg*kg^−1 s.c., compared to saline pretreatment (FIG. 3B)
[19] = target: T7, H1R (Homo sapiens, UniProt P35367); experiment: Radioligand binding (competitive displacement and saturation), cell membranes
T7 construct: host or cells: CHO, transient
Protocol: as §1

[20] = target: human wild-type 5-HT2A (Homo sapiens, UniProt P28223); experiment: IP-One HTRF IP1 accumulation assay; conditions: antagonism of IP1 accumulation in the presence of 1 μM 5-HT; ± SD
[21] = target: T8, 5-HT2AR (Homo sapiens, UniProt P28223); experiment: Radioligand binding (competitive displacement and saturation), cell membranes; conditions: displacement of [^3H]ketanserin; mean of n independent experiments, ± SD where n ≥ 5
T8 construct: host or cells: HEK293, transient
Protocol: as §1

[22] = target: T9, S242A^5.46 5-HT2AR (Homo sapiens, UniProt P28223, S242A); experiment: IP1 accumulation assay at point-mutated 5-HT2AR; format: cell-based; conditions: in the presence of 1 μM 5-HT; ± SD
T9 construct: expressed in transfected cells; host or cells: clonal cells
Protocol: as §1

[23] = target: T10, V235M^5.39 5-HT2AR (Homo sapiens, UniProt P28223, V235M); experiment: IP1 accumulation assay at point-mutated 5-HT2AR; format: cell-based; conditions: in the presence of 1 μM 5-HT; ± SD
T10 construct: expressed in transfected cells; host or cells: clonal cells
Protocol: as §1

[24] = target: T11, I210V^4.60 5-HT2AR (Homo sapiens, UniProt P28223, I210V); experiment: IP1 accumulation assay at point-mutated 5-HT2AR; format: cell-based; conditions: in the presence of 1 μM 5-HT; ± SD
T11 construct: expressed in transfected cells; host or cells: clonal cells
Protocol: as §1

[25] = target: T12, G238S^5.42 5-HT2AR (Homo sapiens, UniProt P28223, G238S); experiment: IP1 accumulation assay at point-mutated 5-HT2AR; format: cell-based; conditions: in the presence of 1 μM 5-HT; ± SD
T12 construct: expressed in transfected cells; host or cells: clonal cells
Protocol: as §1

[26] = target: T13, F213K^4.63 5-HT2AR (Homo sapiens, UniProt P28223, F213K); experiment: IP1 accumulation assay at point-mutated 5-HT2AR; format: cell-based; conditions: in the presence of 1 μM 5-HT; ± SD
T13 construct: expressed in transfected cells; host or cells: clonal cells
Protocol: as §1

[27] = target: D231F^5.35 5-HT2AR (Homo sapiens, UniProt P28223, D231F); experiment: Exploratory saturation radioligand binding at point-mutated 5-HT2AR; conditions: membranes of transfected HEK293 cells (FIGS. 14A-14D)
[28] = target: T6, W158I^4.56 H1R; remark: listed apart in the source

T5 sequence (P41595 whole entry): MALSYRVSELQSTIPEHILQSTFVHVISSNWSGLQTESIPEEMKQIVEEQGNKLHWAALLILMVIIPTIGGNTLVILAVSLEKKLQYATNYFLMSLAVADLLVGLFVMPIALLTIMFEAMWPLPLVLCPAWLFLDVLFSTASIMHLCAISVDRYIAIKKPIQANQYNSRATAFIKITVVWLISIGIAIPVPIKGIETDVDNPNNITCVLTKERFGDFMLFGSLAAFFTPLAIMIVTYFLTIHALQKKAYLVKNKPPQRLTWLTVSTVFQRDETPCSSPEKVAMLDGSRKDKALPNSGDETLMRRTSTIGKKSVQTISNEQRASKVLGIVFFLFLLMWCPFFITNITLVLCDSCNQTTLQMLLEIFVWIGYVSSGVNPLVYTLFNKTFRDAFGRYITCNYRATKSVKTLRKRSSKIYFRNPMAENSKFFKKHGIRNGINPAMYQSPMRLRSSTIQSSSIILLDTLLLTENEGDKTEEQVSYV
human wild-type 5-HT2B, sequence (P41595 whole entry): as above
T1 sequence (P28223 whole entry C322K): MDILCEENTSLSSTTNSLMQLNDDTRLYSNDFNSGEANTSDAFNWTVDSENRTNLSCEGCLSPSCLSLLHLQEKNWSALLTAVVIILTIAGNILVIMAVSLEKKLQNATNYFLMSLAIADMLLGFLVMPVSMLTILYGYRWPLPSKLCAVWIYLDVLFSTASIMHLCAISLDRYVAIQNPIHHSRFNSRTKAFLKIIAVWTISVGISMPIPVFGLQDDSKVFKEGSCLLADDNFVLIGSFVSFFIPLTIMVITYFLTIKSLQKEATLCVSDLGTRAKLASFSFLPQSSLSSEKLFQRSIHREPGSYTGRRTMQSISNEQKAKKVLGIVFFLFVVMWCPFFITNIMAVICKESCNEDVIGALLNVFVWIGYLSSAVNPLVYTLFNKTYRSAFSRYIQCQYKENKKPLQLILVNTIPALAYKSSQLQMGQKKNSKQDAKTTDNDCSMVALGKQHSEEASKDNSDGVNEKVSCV
D2L, sequence (P14416 whole entry): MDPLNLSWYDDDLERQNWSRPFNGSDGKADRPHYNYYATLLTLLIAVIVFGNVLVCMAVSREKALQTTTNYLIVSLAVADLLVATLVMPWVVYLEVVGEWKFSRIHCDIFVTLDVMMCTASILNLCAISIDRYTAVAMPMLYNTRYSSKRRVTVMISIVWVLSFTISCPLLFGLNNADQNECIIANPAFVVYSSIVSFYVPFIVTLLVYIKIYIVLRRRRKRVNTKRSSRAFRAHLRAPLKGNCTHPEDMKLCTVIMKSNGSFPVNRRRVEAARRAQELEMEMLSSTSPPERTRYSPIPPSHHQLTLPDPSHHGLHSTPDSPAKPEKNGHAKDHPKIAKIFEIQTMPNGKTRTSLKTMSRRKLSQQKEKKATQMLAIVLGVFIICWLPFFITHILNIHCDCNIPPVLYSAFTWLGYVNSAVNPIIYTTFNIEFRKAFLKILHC
5-HT7, sequence (P34969 1-445 isoform P34969-2): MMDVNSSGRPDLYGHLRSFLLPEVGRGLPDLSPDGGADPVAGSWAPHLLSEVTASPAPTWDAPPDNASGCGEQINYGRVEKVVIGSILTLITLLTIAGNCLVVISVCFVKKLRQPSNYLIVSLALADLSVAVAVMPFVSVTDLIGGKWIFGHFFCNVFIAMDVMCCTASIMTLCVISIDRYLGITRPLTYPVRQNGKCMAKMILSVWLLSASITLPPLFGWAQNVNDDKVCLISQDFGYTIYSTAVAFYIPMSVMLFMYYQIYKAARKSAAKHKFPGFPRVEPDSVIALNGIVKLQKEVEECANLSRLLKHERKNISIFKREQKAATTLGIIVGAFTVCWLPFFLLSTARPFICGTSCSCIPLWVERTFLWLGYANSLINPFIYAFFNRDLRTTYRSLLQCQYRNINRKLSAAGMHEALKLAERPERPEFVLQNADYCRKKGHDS
D3, sequence (P35462 whole entry): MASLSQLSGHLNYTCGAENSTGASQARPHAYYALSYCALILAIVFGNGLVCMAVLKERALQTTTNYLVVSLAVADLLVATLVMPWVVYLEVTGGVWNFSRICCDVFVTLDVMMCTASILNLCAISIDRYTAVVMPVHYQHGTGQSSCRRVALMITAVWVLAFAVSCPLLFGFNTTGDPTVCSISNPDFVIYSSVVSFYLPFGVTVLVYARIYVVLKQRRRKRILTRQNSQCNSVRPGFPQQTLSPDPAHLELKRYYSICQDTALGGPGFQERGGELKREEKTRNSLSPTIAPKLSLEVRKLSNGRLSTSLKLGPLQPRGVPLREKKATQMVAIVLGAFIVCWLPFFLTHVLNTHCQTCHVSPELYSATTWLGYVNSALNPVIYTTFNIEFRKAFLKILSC
T6 sequence (P35367 whole entry W158I): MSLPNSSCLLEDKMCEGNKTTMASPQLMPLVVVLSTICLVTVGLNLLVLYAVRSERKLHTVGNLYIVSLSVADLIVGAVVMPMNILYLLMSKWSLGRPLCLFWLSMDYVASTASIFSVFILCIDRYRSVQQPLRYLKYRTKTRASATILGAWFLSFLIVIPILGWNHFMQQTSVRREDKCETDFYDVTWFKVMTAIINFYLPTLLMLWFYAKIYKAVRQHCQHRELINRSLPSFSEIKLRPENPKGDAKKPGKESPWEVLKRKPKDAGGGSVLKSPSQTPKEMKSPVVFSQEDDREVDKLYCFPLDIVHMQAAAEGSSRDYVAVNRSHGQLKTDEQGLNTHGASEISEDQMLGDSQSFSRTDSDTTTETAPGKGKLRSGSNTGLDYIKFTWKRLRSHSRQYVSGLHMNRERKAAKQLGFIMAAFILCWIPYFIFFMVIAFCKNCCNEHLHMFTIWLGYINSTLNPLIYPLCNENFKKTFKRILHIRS
human wild-type 5-HT2C, sequence (P28335 33-458): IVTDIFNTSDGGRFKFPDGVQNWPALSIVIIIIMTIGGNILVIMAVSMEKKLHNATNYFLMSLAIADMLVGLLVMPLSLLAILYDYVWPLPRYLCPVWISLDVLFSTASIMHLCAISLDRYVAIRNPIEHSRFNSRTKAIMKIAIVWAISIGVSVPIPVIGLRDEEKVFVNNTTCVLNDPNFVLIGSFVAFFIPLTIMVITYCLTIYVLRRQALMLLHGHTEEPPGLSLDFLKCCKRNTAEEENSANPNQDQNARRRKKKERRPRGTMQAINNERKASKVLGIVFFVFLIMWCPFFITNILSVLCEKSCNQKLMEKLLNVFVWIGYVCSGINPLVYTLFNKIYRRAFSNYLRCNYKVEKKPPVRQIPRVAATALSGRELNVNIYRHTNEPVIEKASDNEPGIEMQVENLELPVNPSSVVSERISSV
human wild-type H1R, sequence (P35367 whole entry): as the sequence (P35367 whole entry W158I) above, with I158W counted along it
T7 sequence (P35367 whole entry): as the sequence (P35367 whole entry W158I) above, with I158W counted along it
T12 sequence (P28223 whole entry G238S): as the sequence (P28223 whole entry C322K) above, with G238S, K322C counted along it
T13 sequence (P28223 whole entry F213K): as the sequence (P28223 whole entry C322K) above, with F213K, K322C counted along it
T10 sequence (P28223 whole entry V235M): as the sequence (P28223 whole entry C322K) above, with V235M, K322C counted along it
T8 sequence (P28223 whole entry): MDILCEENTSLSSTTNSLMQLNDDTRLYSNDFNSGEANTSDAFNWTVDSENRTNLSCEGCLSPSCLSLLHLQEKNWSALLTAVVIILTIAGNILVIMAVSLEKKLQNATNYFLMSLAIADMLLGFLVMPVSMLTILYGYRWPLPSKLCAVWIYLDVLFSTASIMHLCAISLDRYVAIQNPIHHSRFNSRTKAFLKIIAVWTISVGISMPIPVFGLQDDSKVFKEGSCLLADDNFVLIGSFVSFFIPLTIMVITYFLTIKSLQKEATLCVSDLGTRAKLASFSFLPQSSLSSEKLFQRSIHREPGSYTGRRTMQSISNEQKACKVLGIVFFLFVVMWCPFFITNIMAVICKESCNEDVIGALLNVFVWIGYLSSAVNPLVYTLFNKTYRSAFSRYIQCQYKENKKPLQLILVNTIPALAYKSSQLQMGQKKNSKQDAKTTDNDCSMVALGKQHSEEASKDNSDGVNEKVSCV
human wild-type 5-HT2A, sequence (P28223 whole entry): as above
T9 sequence (P28223 whole entry S242A): as the sequence (P28223 whole entry C322K) above, with S242A, K322C counted along it
T11 sequence (P28223 whole entry I210V): as the sequence (P28223 whole entry C322K) above, with I210V, K322C counted along it
D231F^5.35 5-HT2AR, sequence (P28223 whole entry D231F): as the sequence (P28223 whole entry C322K) above, with D231F, K322C counted along it

SMILES: CN(C)c1ccc(-c2cccc([C@H]3C[C@H](N(C)C)Cc4ccccc43)c2)cc1 [(2S,4R)-2k, Trans-4-(4′-(dimethylamino)-[1,1′-biphenyl]-3-yl)-N,N-dimethyl-1,2,3,4-tetra-hydronaph-thalen-2-amine]
inverse agonist efficacy (Imax) at 5-HT2CRs [8]: ~75%
locomotor activity, compound administered alone [9]: preserving general locomotor ability
Ki [10]: 79.4 nM
head twitch response elicited by (±)-DOI [11]: significantly attenuated the head twitch response
inverse agonist efficacy at C322K^6.34 5-HT2ARs (reduction of basal IP1 accumulation) [1]: ~60%
pKi D2L [2]: 5.70^(3)
pKi 5-HT1A [3]: 5.58^(3)
pKi 5-HT7 [4]: 6.28^(3)
pKi D3 [5]: 6.92^(3)
pKb at 5-HT2BRs [12]: 5.59±0.50
partial agonist efficacy at 5-HT2BRs, exploratory screening ([12]; 10 μM ligand, change from basal IP1 normalized to 5-HT (FIG. 2A)): ~13 % 5-HT
agonist activity at 5-HT2BRs, full concentration-response ([12]; FIG. 7A): did not reach statistical significance
Ki [13]: 47.9 nM
Ki [14]: 646 nM
Ki [15]: 617 nM

SMILES: NCCc1c[nH]cn1 [histamine]
IP1 accumulation at W158I^4.56 H1Rs in response to histamine [16]: unable to stimulate IP1 accumulation

SMILES: CN(C)[C@@H]1Cc2ccccc2[C@H](c2cccc(-c3cccc(F)c3)c2)C1 (single isomer, unassigned) [(2R,4R)-3h, Cis-4-(3′-fluoro-[1,1′-biphenyl]-3-yl)-N,N-dimethyl-1,2,3,4-tetrahydronaphthalen-2-amine]
inverse agonist efficacy (Imax) at 5-HT2CRs [8]: exhibits inverse agonism
pKb at H1Rs [17]: 5.82±0.22
locomotor activity, compound administered alone [9]: preserving general locomotor ability
head twitch response elicited by (±)-DOI [11]: significantly attenuated the head twitch response
inverse agonist efficacy at C322K^6.34 5-HT2ARs (reduction of basal IP1 accumulation) [1]: ~60%
pIC50 inverse agonism at C322K^6.34 5-HT2ARs [1]: 6.81±0.39
pKi D2L [2]: <5.0^(3)
pKi 5-HT1A [3]: <5.0^(3)
pKi 5-HT7 [4]: 6.29^(4)
pKi D3 [5]: 6.21 ^(3)
pKb Wild type 5-HT2AR [20]: 6.97 ± 0.37
pKi 5-HT2AR [21]: 9.46 ± 0.34
pKi H1R [19]: 7.31 ^(2) 7.39-7.23 8.96^(3) 9.11-8.88 6.20^(2) 6.23-6.18 6.30 ± 0.10^(5) 6.42-6.14
pKb S242A^5.46 5-HT2AR [22]: 6.85 ± 0.36
pKb V235M^5.39 5-HT2AR [23]: 7.02 ± 0.26
pKb I210V^4.60 5-HT2AR [24]: 7.18 ± 0.22
pKb G238S^5.42 5-HT2AR [25]: 4.59 ± 0.48
pKb F213K^4.63 5-HT2AR [26]: 7.04 ± 0.17
Ki [14]: 794 nM
Ki [15]: 741 nM

SMILES: [3H]C([3H])(N1CCC(C(=O)c2ccc(F)cc2)CC1)C([3H])([3H])n1c(=O)[nH]c2ccccc2c1=O [[^3H]Ketanserin]
specific binding to D231F^5.35 5-HT2ARs [27]: no specific binding is detected
specific binding to W158I^4.56 H1Rs [28]: cannot be detected

The next lines start with results.

inverse agonist efficacy at C322K^6.34 5-HT2ARs (reduction of basal IP1 accumulation) ([1]; below basal): ~50%
Ki ([2]; read-out: pKi D2L (converted)): 69.2 nM
Ki ([3]; read-out: pKi 5-HT1A (converted)): > 10 µM
Ki ([4]; read-out: pKi 5-HT7 (converted)): 41.7 nM
Ki ([5]; read-out: pKi D3 (converted)): 120 nM
Ki [6]: 10.2 nM
Ki [7]: 3.24 µM
SMILES: CN(C)[C@@H]1Cc2ccccc2[C@@H](c2cccc(Br)c2)C1 (single isomer, unassigned) [(2S,4R)-2a, Trans-4-(3-bromophenyl)-N, N-dimethyl-1,2,3,4-tetrahydronaphthalen-2-amine]

pKb at H1Rs [17]: little, if any, antagonism
locomotor activity, compound administered alone [9]: suppresses locomotor activity
Ki [10]: 437 nM
Kb [12]: 1380 nM
locomotor activity (distance traveled) of mice given 1 mg*kg^−1 DOI [18]: locomotor suppression
pKi H1R ([19]; displacement of [^3H]mepyramine, mean of n independent experiments, ± SD where n ≥ 5): 5.50^(2)
SMILES: CC(C)COc1ccc(CNC(=O)N(Cc2ccc(F)cc2)C2CCN(C)CC2)cc1 [PIMA, pimavanserin, reference compound]
attenuation of head twitch response compared with the same dose of (2S,4R)-2k ([11]; 0.3 mg*kg^−1 s.c.): significantly more effective
head twitch response elicited by (±)-DOI [11]: significantly attenuated the head twitch response
